Patent US7566789B2, “Benzimidazole derivatives” (Merck Patent GmbH, priority 2002, dated 2009)

Experiments:
factor Xa = factor Xa (Homo sapiens, UniProt P00742); test: Inhibition of factor Xa (FXa-IC50); format: biochemical
Description: The inhibition of factor Xa by the compounds according to the invention and the measurement of the anticoagulant and antithrombotic activity can be determined by conventional in-vitro or in-vivo methods. A suitable method is described, for example, by J. Hauptmann et al. in Thrombosis and Haemostasis 1990, 63, 220-223.
The inhibition of factor Xa can be measured, for example by the method of T. Hara et al. in Thromb. Haemostas. 1994, 71, 314-319.

TF/FVIIa = TF/FVIIa (Homo sapiens, UniProt P08709); test: Inhibition of TF/factor VIIa (TF/FVIIa-IC50); format: biochemical
Description: The inhibition of factor VIIa by the compounds according to the invention and the measurement of the anticoagulant and antithrombotic activity can be determined by conventional in-vitro or in-vivo methods. A conventional method for the measurement of the inhibition of factor VIIa is described, for example, by H. F. Ronning et al. in Thrombosis Research 1996, 84, 73-81.

factor Xa, sequence (P00742 235-488 limits assumed): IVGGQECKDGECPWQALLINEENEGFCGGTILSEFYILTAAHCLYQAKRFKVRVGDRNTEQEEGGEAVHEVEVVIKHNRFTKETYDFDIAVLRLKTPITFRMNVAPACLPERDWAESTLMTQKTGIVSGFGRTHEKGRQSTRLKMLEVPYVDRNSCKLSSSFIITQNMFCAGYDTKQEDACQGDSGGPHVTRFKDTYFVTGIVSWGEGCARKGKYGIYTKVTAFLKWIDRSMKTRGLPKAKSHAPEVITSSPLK
factor Xa, sequence (P00742 41-179 limits assumed): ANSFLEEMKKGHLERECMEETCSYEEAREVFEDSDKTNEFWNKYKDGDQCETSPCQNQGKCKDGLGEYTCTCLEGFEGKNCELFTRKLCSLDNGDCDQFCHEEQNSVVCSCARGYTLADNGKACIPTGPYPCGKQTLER
TF/FVIIa, sequence (P08709 213-466 limits assumed): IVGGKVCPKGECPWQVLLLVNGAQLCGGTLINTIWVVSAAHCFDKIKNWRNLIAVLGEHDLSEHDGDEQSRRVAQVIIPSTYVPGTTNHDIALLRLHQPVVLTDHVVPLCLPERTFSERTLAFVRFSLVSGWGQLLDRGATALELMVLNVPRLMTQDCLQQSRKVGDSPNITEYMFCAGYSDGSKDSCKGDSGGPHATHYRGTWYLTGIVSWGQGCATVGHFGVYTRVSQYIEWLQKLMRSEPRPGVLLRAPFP
TF/FVIIa, sequence (P08709 61-212 limits assumed): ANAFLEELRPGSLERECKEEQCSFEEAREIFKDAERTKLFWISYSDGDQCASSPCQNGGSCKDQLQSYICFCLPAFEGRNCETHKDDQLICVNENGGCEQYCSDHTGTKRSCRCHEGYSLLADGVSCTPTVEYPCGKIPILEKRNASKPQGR
TF/FVIIa, sequence (P13726 33-295 partner): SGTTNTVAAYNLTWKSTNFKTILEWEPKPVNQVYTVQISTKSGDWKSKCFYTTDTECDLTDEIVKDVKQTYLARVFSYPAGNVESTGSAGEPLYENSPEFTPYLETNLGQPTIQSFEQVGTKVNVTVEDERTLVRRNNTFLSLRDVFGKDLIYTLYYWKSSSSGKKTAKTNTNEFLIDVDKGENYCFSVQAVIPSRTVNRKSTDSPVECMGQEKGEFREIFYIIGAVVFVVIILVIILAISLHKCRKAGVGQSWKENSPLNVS

SMILES | IC50 (factor Xa) | IC50 (TF/FVIIa) | melting point
O=C(Cc1ccc2[nH]c(-c3ccc(Cl)s3)nc2c1)Nc1ccc(-n2ccccc2=O)cc1 [AC, 2-[2-(5-chlorothiophen-2-yl)-1H-benzimidazol-5-yl]-N-[4-(2-oxopyridin-1-yl)phenyl]acetamide] | 180 nM | 130 nM | 
O=C(Cc1ccc2[nH]c(-c3ccc(Cl)s3)nc2c1)Nc1ccc(N2CCOCC2=O)cc1 [AA, 2-[2-(5-chlorothiophen-2-yl)-1H-benzimidazol-5-yl]-N-[4-(3-oxomorpholin-4-yl)phenyl]acetamide] | 230 nM | 190 nM | 200 °C (dec.)
Cc1cc(NC(=O)Cc2ccc3[nH]c(-c4ccc(Cl)s4)nc3c2)ccc1N1CCOCC1=O [AB, 2-[2-(5-chlorothiophen-2-yl)-1H-benzimidazol-5-yl]-N-[3-methyl-4-(3-oxomorpholin-4-yl)phenyl]acetamide] | 120 nM | 130 nM | 
